Here are results for 75 compounds from PubChem BioAssay AID2740 (NMMLSC, 2010).

The source made the active and inactive calls.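 How the source made its calls: active means compounds whose fitted half-maximal concentration for changing the GFP signal is at or below a set limit; inactive means the rest.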

This test can be described thus: TOR pathway RPL19A-GFP modulators, concentration series – cell-based, S. cerevisiae, flow cytometry, MLPCN hits, dose response (AID 2740).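 Further: background is signal of the same compound in parental non-GFP s288c yeast.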 As to conditions: S. cerevisiae RPL19A-GFP strain, flow cytometry fluorescence, 3 h; at 33 µM (top of the series). On the technique in general: A flow cytometer gives signals particle by particle.
Regarding `COc1cccc(N=Cc2nc(-c3ccccc3)oc2OC(C)=O)c1`, the GFP fluorescence, lower = active (kMESF (background-subtracted)) is 41.9 (inactive).
Turning to `COc1cc(C=C2C(=O)c3ccccc3C2=O)cc(OC)c1OC`, the GFP fluorescence, lower = active (kMESF (background-subtracted)) is 43.2 (inactive).
Next, `Oc1c(Br)cc(Br)cc1C=Nc1ccc2c(c1)OCO2`: 40 (inactive).
Turning to `O=C1C2C3C=CC(CO)(O3)C2C(=O)N1c1ccccc1-c1ccccc1` (stereo not given), the GFP fluorescence, lower = active (kMESF (background-subtracted)) was 20.9 (inactive).
For `O=C(c1ccc(C(=O)N2CCCc3ccccc32)s1)N1CCCc2ccccc21`, the GFP fluorescence, lower = active (kMESF (background-subtracted)) is 38.1 (inactive).
Next, `Cc1ccc(/C=c2\sc3nc(-c4cccs4)nn3c2=O)o1`: 44.7 (inactive); `Cc1ccc(N=c2ssnc2Cl)cc1`: 23 (inactive); `CCCCc1ccc(NC(=O)CC(C)=O)cc1`: 47.2 (inactive).
For the compound `Oc1cc(-c2ccc(N3CCCCC3)nc2)cc2cccnc12`, the GFP fluorescence, lower = active (kMESF (background-subtracted)) is 46.1 (inactive).
With `O=C1c2cccc3c([N+](=O)[O-])ccc(c23)C(=O)N1c1ccccn1`, the GFP fluorescence, lower = active (kMESF (background-subtracted)) is 55.8 (inactive).
Take `O=S(=O)(c1ccccc1)c1ccc(C(F)(F)F)cn1`: the GFP fluorescence, lower = active (kMESF (background-subtracted)) is 45.7 (inactive).
To `COc1ccc2c(c1)c(/C=C/c1cc[n+](C)cc1)cn2C` belongs 40 (inactive).
To `CCN(CC)c1ccc2cc(-c3nc4ccccc4[nH]3)c(=O)oc2c1` belongs 42.6 (inactive); to `O=C(NOC(=O)c1ccccc1)c1ccccc1`, 38.1 (inactive); to `O=C(/C=C/c1ccccc1)c1cc(Br)ccc(=O)c1O`, 4.04 (inactive).
In the case of `COc1ccc(N=Cc2nc(-c3ccccc3)oc2OC(=O)c2ccccc2)cc1`, the GFP fluorescence, lower = active (kMESF (background-subtracted)) was 46.2 (inactive).
Take `CCN1/C(=C/c2ccc3cc(C)ccc3[n+]2CC)Sc2ccc3sccc3c21`: the GFP fluorescence, lower = active (kMESF (background-subtracted)) was 31.5 (inactive).
`COc1ccc(CCNC2=C(Cl)C(=O)N(CCc3ccccc3)C2=O)cc1OC`: the GFP fluorescence, lower = active (kMESF (background-subtracted)) was 40 (inactive).
On to `CCOC(=O)c1ccc(N=Cc2nc(-c3ccccc3)oc2OC(C)=O)cc1`, for which the GFP fluorescence, lower = active (kMESF (background-subtracted)) is 41.6 (inactive).
Next, `Cc1ccsc1/C=C1\C(=O)NC(=S)N(C)C1=O`: 19.6 (inactive).
For the compound `COc1cc(/C=C2/C(=O)c3cccc([N+](=O)[O-])c3C2=O)c(Br)cc1O`, the GFP fluorescence, lower = active (kMESF (background-subtracted)) was 43.9 (inactive).
To `O=C(Oc1cccc2cccnc12)c1ccc(Br)o1` belongs 44.1 (inactive).
`CCN(CC)c1ccc2cc(-c3nc(-c4ccc(OC)cc4)cs3)c(=O)oc2c1`: the GFP fluorescence, lower = active (kMESF (background-subtracted)) is 40 (inactive).
Next, `O=C1Nc2ccc(Br)cc2/C1=C/C(=O)c1ccc2c(c1)OCO2`: 40.6 (inactive).
To `COc1cccc(/C=C2\C(=O)N(c3cccc(C)c3)C(=O)c3ccccc32)c1` belongs 42.4 (inactive).
For the compound `O=C1/C(=C\c2ccc(O)c(O)c2)SC(=S)N1Cc1ccccc1`, the GFP fluorescence, lower = active (kMESF (background-subtracted)) is 1.52 (inactive).
Take `CC(=O)OC[C@]12CC[C@H]3[C@@](C)(CC[C@H]4C(C)(C)CCC[C@]34C)[C@@H]1C[C@H](C1=CC(=O)O[C@@H]1OC(C)=O)O2`: the GFP fluorescence, lower = active (kMESF (background-subtracted)) is 18.7 (inactive).
As to `COc1ccccc1C(=O)NNC(=S)NC(=O)c1ccco1`, the GFP fluorescence, lower = active (kMESF (background-subtracted)) is 35.5 (inactive).
On to `C/C(=N/NC(=O)c1ccc(C(C)(C)C)cc1)c1ccccn1`, for which the GFP fluorescence, lower = active (kMESF (background-subtracted)) is 45.9 (inactive).
Regarding `CCn1c(/C=C/c2ccc([N+](=O)[O-])o2)nc2ccccc2c1=O`, the GFP fluorescence, lower = active (kMESF (background-subtracted)) is -37.1 (inactive).
Consider `COc1ccc(NC2=C(Cl)C(=O)N(CCc3ccccc3)C2=O)c(OC)c1`, for which the GFP fluorescence, lower = active (kMESF (background-subtracted)) is 39.1 (inactive).
In the case of `CCCOc1ccc(C(=O)NNC(=S)NC(=O)c2ccccc2)cc1`, the GFP fluorescence, lower = active (kMESF (background-subtracted)) was 45.7 (inactive).
With `Clc1cccc(CN2COc3c(cc(Cl)c4cccnc34)C2)c1`, the GFP fluorescence, lower = active (kMESF (background-subtracted)) is 36.5 (inactive).
Take `CC1=CC(=O)C(C(C)C)=C/C1=N/OS(=O)(=O)c1ccccc1`: the GFP fluorescence, lower = active (kMESF (background-subtracted)) was 23.9 (inactive).
Next, `N/C(=N\OC(=O)c1ccccc1Cl)c1ccc(Cl)cc1`: 38.2 (inactive).
With `O=C1CCN(S(=O)(=O)c2ccccc2)CCN1CCOCc1ccc(F)cc1`, the GFP fluorescence, lower = active (kMESF (background-subtracted)) is 36.9 (inactive).
Regarding `On1ccccc1=S`, the GFP fluorescence, lower = active (kMESF (background-subtracted)) was 38 (inactive).
Turning to `CCSc1nnc(NC(=O)c2ccccn2)s1`, the GFP fluorescence, lower = active (kMESF (background-subtracted)) was 50 (inactive).
Regarding `CN(c1ccccc1)c1ccc(/C=c2\s/c(=C(/C#N)C(=O)C(C)(C)C)n(Cc3ccco3)c2=O)cc1`, the GFP fluorescence, lower = active (kMESF (background-subtracted)) was 56 (inactive).
`Oc1c(I)cc(I)c2cccnc12`: the GFP fluorescence, lower = active (kMESF (background-subtracted)) was 23 (inactive).
`Cc1[nH][nH]c(=O)c1C(c1ccc(-c2ccc(Cl)cc2)o1)c1c(C)[nH][nH]c1=O`: the GFP fluorescence, lower = active (kMESF (background-subtracted)) was 41.2 (inactive).
Next, `CC(C)[C@]1(c2ccccc2)ON(c2ccccc2C(F)(F)F)C1=O`: 36 (inactive).
Regarding `O=C(COc1ccccc1)NNC(=S)NC(=O)c1ccccc1`, the GFP fluorescence, lower = active (kMESF (background-subtracted)) is 44.4 (inactive).
Next, `CCc1ccc(C(=O)/C=C/c2ccc([N+](=O)[O-])o2)cc1`: 48.7 (inactive).
As to `COc1ccc([N+](=O)[O-])c(S(=O)(=O)c2ccccc2)n1`, the GFP fluorescence, lower = active (kMESF (background-subtracted)) was 39.1 (inactive).
As for `Cn1c(=O)c(C(=O)NNC(=O)c2ccc(Br)cc2)c(O)c2ccccc21`, the GFP fluorescence, lower = active (kMESF (background-subtracted)) is 22.3 (inactive).
Turning to `O=C(Oc1ccnc2cc(Cl)ccc12)N1CCCCCC1`, the GFP fluorescence, lower = active (kMESF (background-subtracted)) is 25.6 (inactive).
Next, `Oc1c(C(Nc2nc3ccccc3s2)c2ccco2)ccc2cccnc12` (stereo not given): 43.4 (inactive); `Cc1cccc(NC(c2ccc(C)s2)c2ccc3ccc(C)nc3c2O)n1` (stereo not given): 31.2 (inactive).
For the compound `O=C(c1ccccn1)c1conc1C(=O)c1ccc(Br)cc1`, the GFP fluorescence, lower = active (kMESF (background-subtracted)) was 38.5 (inactive).
To `O=C(/C=C/c1ccccc1Cl)c1ccccc(=O)c1O` belongs 5.26 (inactive).
Regarding `O=C1C(Cl)=C(NCCc2ccccc2)C(=O)N1CCc1ccccc1`, the GFP fluorescence, lower = active (kMESF (background-subtracted)) was 43.1 (inactive).
Consider `Oc1c(C(Nc2cccc(C(F)(F)F)c2)c2ccncc2)ccc2cccnc12` (stereo not given), for which the GFP fluorescence, lower = active (kMESF (background-subtracted)) is 45.3 (inactive).
On to `O=C(c1ccc(Cl)c([N+](=O)[O-])c1)N1CCN(c2ccccc2)CC1`, for which the GFP fluorescence, lower = active (kMESF (background-subtracted)) was 46.4 (inactive).
`COC(CNC(=O)c1ccc2c3c(onc13)-c1ccccc1C2=O)OC`: the GFP fluorescence, lower = active (kMESF (background-subtracted)) is 14.8 (inactive).
`N#C/C(=C\c1cc(Br)ccc1F)C(=O)NC1CC1`: the GFP fluorescence, lower = active (kMESF (background-subtracted)) is 24.2 (inactive).
Next, `O=C(Nc1ccc(NC(=O)c2cc3ccccc3o2)cc1)c1ccc2c(c1)OCCO2`: 40.1 (inactive).
As for `O=C(O)c1cc[c]([Hg][Cl])cc1`, the GFP fluorescence, lower = active (kMESF (background-subtracted)) is 15.7 (inactive).
`COc1ccc([C@]2(C(C)C)ON(c3ccccc3C(F)(F)F)C2=O)cc1`: the GFP fluorescence, lower = active (kMESF (background-subtracted)) is 46 (inactive).
Consider `O=c1[nH]c(-c2ccc(Cl)cc2)cs1`, for which the GFP fluorescence, lower = active (kMESF (background-subtracted)) was 41.6 (inactive).
For `CC(=O)Oc1cccc(N2C(=O)c3cccc4c([N+](=O)[O-])ccc(c34)C2=O)c1`, the GFP fluorescence, lower = active (kMESF (background-subtracted)) was 39.5 (inactive).
To `Cc1ccc2nc(/C(C#N)=C/c3ccc(O)c(O)c3)[nH]c2c1` belongs 43.8 (inactive); to `O=c1cc(-c2ccccc2)cc(-c2ccccc2)n1O`, 15.4 (inactive); to `CC(=O)n1cc(C(C[N+](=O)[O-])SCCN)c2ccccc21` (stereo not given), 21.4 (inactive).
With `Cc1ccc(C)c(/C=C/C(=O)c2ccccc(=O)c2O)c1`, the GFP fluorescence, lower = active (kMESF (background-subtracted)) is 15.8 (inactive).
With `COc1ccc(NC2=C(Cl)C(=O)N(CCc3ccccc3)C2=O)cc1`, the GFP fluorescence, lower = active (kMESF (background-subtracted)) is 41.6 (inactive).
To `CCOC(=O)CSC1=NC(=O)/C(=C/c2ccc(OC)cc2)S1` belongs 43.8 (inactive).
`c1ccc(-c2csc(Nc3cccnc3)n2)nc1`: the GFP fluorescence, lower = active (kMESF (background-subtracted)) is 36.5 (inactive).
For `CC(=O)N(\C=C/C=C/C=C1\Sc2ccccc2C1=O)c1ccccc1`, the GFP fluorescence, lower = active (kMESF (background-subtracted)) was 56.1 (inactive).
In the case of `CCc1cc(C(=O)Nc2nc(-c3ccccn3)cs2)sc1C`, the GFP fluorescence, lower = active (kMESF (background-subtracted)) was 23.7 (inactive).
Regarding `Cc1c(C)c2ccc(Oc3ccc([N+](=O)[O-])cc3C(F)(F)F)c(C)c2oc1=O`, the GFP fluorescence, lower = active (kMESF (background-subtracted)) is 39.5 (inactive).
To `COCCN1C(=O)/C(=C/c2ccc(N3CCCC3)cc2C)SC1=S` belongs 43 (inactive); to `COc1ccc(/C=C/C(=O)c2cc(Br)ccc(=O)c2O)cc1`, -35.7 (inactive); to `Cc1c(NC2=C(Cl)C(=O)N(c3ccccc3Cl)C2=O)c(=O)n(-c2ccccc2)n1C`, 38.7 (inactive).
Next, `COc1ccc(N2C(=O)C(Cl)=C(Oc3cccc(OC)c3)C2=O)cc1`: 45.6 (inactive).
